Measured values as given in patent US8815864B2, “Indanyloxydihydrobenzofuranylacetic acids” (Boehringer Ingelheim International GmbH, priority 2012, dated 2014).

molecular target: human GPR40 receptor (Homo sapiens, UniProt O14842); assay: IP1 accumulation measurements using the IPOne assay system; assay type: cell-based; details: 1321N1 cells stably expressing human GPR40; stimulation 1 h at 37° C.
Procedure: IP1 accumulation measurements using the IPOne assay system—1321N1 cells stably expressing human GPR40 receptor (Euroscreen, Belgium) are seeded 24 h before the assay in white 384-well plates in culture medium containing 10% FCS, 1% Na-Pyruvate and 400 μg/mL G418. IP1 is assayed according to the manufacturer's description (Cisbio Bioassays, France). In brief, the assay is started by substitution of the culture medium by stimulation buffer (Hepes 10 mM, CaCl2 1 mM, MgCl2 0.5 mM, KCl 4.2 mM, NaCl 146 mM, glucose 5.5 mM and LiCl 50 mM, pH 7.4). Cells are stimulated for 1 h at 37° C., 5% CO2 by addition of the compounds that are diluted in stimulation buffer containing LiCl. Assays are stopped by adding HTRF-conjugates (IP1-d2 and Anti-IP1 cryptate Tb) and lysis buffer, provided by the manufacturer. After an incubation time of 1 h at room temperature plates are measured using an EnVision™, Perkin Elmer. The obtained fluorescence ratios at 665/615 […] are then used to calculate the pEC50 values using Assay Explorer 3.3 Software (Accelrys, Inc.) by interpolation using an IP1 reference curve and subsequent sigmoidal curve fitting allowing for a variable hill slope.

human GPR40 receptor, sequence (O14842 whole entry): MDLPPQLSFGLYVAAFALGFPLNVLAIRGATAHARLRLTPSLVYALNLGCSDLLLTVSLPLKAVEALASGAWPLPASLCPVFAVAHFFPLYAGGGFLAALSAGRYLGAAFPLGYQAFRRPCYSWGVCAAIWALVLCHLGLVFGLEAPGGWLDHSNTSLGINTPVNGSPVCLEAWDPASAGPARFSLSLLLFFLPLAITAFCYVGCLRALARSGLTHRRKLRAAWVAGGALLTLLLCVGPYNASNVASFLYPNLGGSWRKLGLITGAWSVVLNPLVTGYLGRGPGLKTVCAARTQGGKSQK

Q: Which EC50 does the source give for `Cc1noc2cc(Oc3ccc(F)c4c3CC[C@H]4Oc3ccc4c(c3)OC[C@H]4CC(=O)O)ccc12` [Example 61, {(S)-6-[(R)-7-Fluoro-4-(3-methyl-benzo[d]isoxazol-6-yloxy)-indan-1-yloxy]-2,3-dihydro-benzofuran-3-yl}-acetic acid] here?
A: 3 nM

Q: Which EC50 does the source give for `N#Cc1cc(F)c(Oc2ccc(F)c3c2CC[C@H]3Oc2ccc3c(c2)OC[C@H]3CC(=O)O)c(F)c1` [Example 51, {(S)-6-[(R)-4-(4-cyano-2,6-difluoro-phenoxy)-7-fluoro-indan-1-yloxy]-2,3-dihydro-benzofuran-3-yl}-acetic acid] here?
A: 18 nM

Q: Which EC50 does the source give for `N#Cc1ccc(Oc2ccc(F)c3c2CC[C@H]3Oc2ccc3c(c2)OC[C@H]3CC(=O)O)c(C#N)c1` [Example 41, {(S)-6-[(R)-4-(2,4-Dicyano-phenoxy)-7-fluoro-indan-1-yloxy]-2,3-dihydro-benzofuran-3-yl}-acetic acid] here?
A: 17 nM

Q: Which EC50 does the source give for `N#Cc1cc(OC(F)(F)F)ccc1Oc1ccc(F)c2c1CC[C@H]2Oc1ccc2c(c1)OC[C@H]2CC(=O)O` [Example 26, {(S)-6-[(R)-4-(2-Cyano-4-trifluoromethoxy-phenoxy)-7-fluoro-indan-1-yloxy]-2,3-dihydro-benzofuran-3-yl}-acetic acid] here?
A: 30 nM

Q: For `O=C(O)C[C@@H]1COc2cc(O[C@@H]3CCc4c(Oc5ccccc5)ccc(F)c43)ccc21` [Example 1, {(S)-6-[(R)-7-Fluoro-4-phenoxy-indan-1-yloxy]-2,3-dihydro-benzofuran-3-yl}-acetic acid], which EC50 is on record?
A: 4 nM

Q: Which EC50 does the source give for `CS(=O)(=O)c1ccc(Oc2ccc(F)c3c2CC[C@H]3Oc2ccc3c(c2)OC[C@H]3CC(=O)O)cc1` [Example 18, {(S)-6-[(R)-7-Fluoro-4-(4-methylsulfonyl-phenoxy)-indan-1-yloxy]-2,3-dihydro-benzofuran-3-yl}-acetic acid] here?
A: 41 nM

Q: `O=C(O)C[C@@H]1COc2cc(O[C@@H]3CCc4c(Oc5cccnc5)ccc(F)c43)ccc21` [Example 6, {(S)-6-[(R)-7-Fluoro-4-pyrid-3-yloxy-indan-1-yloxy]-2,3-dihydro-benzofuran-3-yl}-acetic acid] was tested. Which EC50 did it give?
A: 33 nM

Q: How did the EC50 turn out when `Cc1nc2cc(Oc3ccc(F)c4c3CC[C@H]4Oc3ccc4c(c3)OC[C@H]4CC(=O)O)ccc2o1` [Example 55, {(S)-6-[(R)-7-Fluoro-4-(2-methyl-benzoxazol-5-yloxy)-indan-1-yloxy]-2,3-dihydro-benzofuran-3-yl}-acetic acid] was run?
A: 6 nM

Q: `COc1ccc(Oc2ccc(F)c3c2CC[C@H]3Oc2ccc3c(c2)OC[C@H]3CC(=O)O)nn1` [Example 16, {(S)-6-[(R)-7-Fluoro-4-(6-methoxy-pyridazin-3-yloxy)-indan-1-yloxy]-2,3-dihydro-benzofuran-3-yl}-acetic acid] was tested. Which EC50 did it give?
A: 138 nM

Q: For `O=C(O)C[C@@H]1COc2cc(O[C@@H]3CCc4c(Oc5ccnc(C(F)(F)F)c5)ccc(F)c43)ccc21` [Example 32, {(S)-6-[(R)-7-Fluoro-4-(2-trifluoromethyl-pyrid-4-yloxy)-indan-1-yloxy]-2,3-dihydro-benzofuran-3}-acetic acid], which EC50 is on record?
A: 6 nM

Q: For `O=C(O)C[C@@H]1COc2cc(O[C@@H]3CCc4c(Oc5ccc6ccccc6n5)ccc(F)c43)ccc21` [Example 40, {(S)-6-[(R)-7-Fluoro-4-(Quinolin-2-yloxy)-indan-1-yloxy]-2,3-dihydro-benzofuran-3-yl}-acetic acid], which EC50 is on record?
A: 22 nM

Q: With `Cc1nc2cc(Oc3ccc(F)c4c3CC[C@H]4Oc3ccc4c(c3)OC[C@H]4CC(=O)O)ccc2s1` [Example 48, {(S)-6-[(R)-7-Fluoro-4-(2-methyl-benzothiazol-5-yloxy)-indan-1-yloxy]-2,3-dihydro-benzofuran-3-yl}-acetic acid] as the molecule, how does the EC50 read?
A: 7 nM

Q: Which EC50 does the source give for `O=C(O)C[C@@H]1COc2cc(O[C@@H]3CCc4c(Oc5ncc6ccccc6n5)ccc(F)c43)ccc21` [Example 43, {(S)-6-[(R)-7-Fluoro-4-(Quinazolin-2-yloxy)-indan-1-yloxy]-2,3-dihydro-benzofuran-3-yl}-acetic acid] here?
A: 34 nM

Q: How did the EC50 turn out when `COc1ncc(Oc2ccc(F)c3c2CC[C@H]3Oc2ccc3c(c2)OC[C@H]3CC(=O)O)cn1` [Example 35, {(S)-6-[(R)-7-Fluoro-4-(2-methoxy-pyrimid-5-yloxy)-indan-1-yloxy]-2,3-dihydro-benzofuran-3-yl}-acetic acid] was run?
A: 79 nM

Q: `O=C(O)C[C@@H]1COc2cc(O[C@@H]3CCc4c(Oc5ccc(OC(F)F)cn5)ccc(F)c43)ccc21` [Example 25, {(S)-6-[(R)-4-(5-Difluoromethoxy-pyrid-2-yloxy)-7-fluoro-indan-1-yloxy]-2,3-dihydro-benzofuran-3-yl}-acetic acid] was tested. Which EC50 did it give?
A: 13 nM

Q: With `Cc1c(Oc2ccc(F)c3c2CC[C@H]3Oc2ccc3c(c2)OC[C@H]3CC(=O)O)ccc2c1cnn2C` [Example 53, {(S)-6-[(R)-7-Fluoro-4-(1,4-dimethyl-1H-indazol-5-yloxy)-indan-1-yloxy]-2,3-dihydro-benzofuran-3-yl}-acetic acid] as the molecule, how does the EC50 read?
A: 69 nM

Q: `Cn1ncc2ccc(Oc3ccc(F)c4c3CC[C@H]4Oc3ccc4c(c3)OC[C@H]4CC(=O)O)cc21` [Example 46, {(S)-6-[(R)-7-Fluoro-4-(1-methyl-1H-indazol-6-yloxy)-indan-1-yloxy]-2,3-dihydro-benzofuran-3-yl}-acetic acid] was tested. Which EC50 did it give?
A: 3 nM

Q: With `Cc1cccc(C)c1Oc1ccc(F)c2c1CC[C@H]2Oc1ccc2c(c1)OC[C@H]2CC(=O)O` [Example 5, {(S)-6-[(R)-7-Fluoro-4-(2,6-dimethyl-phenoxy)-indan-1-yloxy]-2,3-dihydro-benzofuran-3-yl}-acetic acid] as the molecule, how does the EC50 read?
A: 70 nM

Q: `O=C(O)C[C@@H]1COc2cc(O[C@@H]3CCc4c(Oc5ccc(C(F)(F)F)cn5)ccc(F)c43)ccc21` [Example 14, {(S)-6-[(R)-7-Fluoro-4-(5-trifluoromethyl-pyrid-2-yloxy)-indan-1-yloxy]-2,3-dihydro-benzofuran-3-yl}-acetic acid] was tested. Which EC50 did it give?
A: 26 nM

Q: How did the EC50 turn out when `O=C(O)C[C@@H]1COc2cc(O[C@@H]3CCc4c(Oc5ccc6ncccc6c5)ccc(F)c43)ccc21` [Example 20, {(S)-6-[(R)-7-Fluoro-4-Quinolin-6-yloxy-indan-1-yloxy]-2,3-dihydro-benzofuran-3-yl}-acetic acid] was run?
A: 6 nM

Q: With `N#Cc1ccc(Br)cc1Oc1ccc(F)c2c1CC[C@H]2Oc1ccc2c(c1)OC[C@H]2CC(=O)O` [Example 50, {(S)-6-[(R)-4-(5-Bromo-2-cyano-phenoxy)-7-fluoro-indan-1-yloxy]-2,3-dihydro-benzofuran-3-yl}-acetic acid] as the molecule, how does the EC50 read?
A: 6 nM

Q: Which EC50 does the source give for `Cc1noc2ccc(Oc3ccc(F)c4c3CC[C@H]4Oc3ccc4c(c3)OC[C@H]4CC(=O)O)cc12` [Example 60, {(S)-6-[(R)-7-Fluoro-4-(3-methyl-benzo[d]isoxazol-5-yloxy)-indan-1-yloxy]-2,3-dihydro-benzofuran-3-yl}-acetic acid] here?
A: 3 nM

Q: With `Cc1cc(Oc2ccc(F)c3c2CC[C@H]3Oc2ccc3c(c2)OC[C@H]3CC(=O)O)ccc1C#N` [Example 21, {(S)-6-[(R)-4-(4-Cyano-3-methyl-phenoxy)-7-fluoro-4-indan-1-yloxy]-2,3-dihydro-benzofuran-3-yl}-acetic acid] as the molecule, how does the EC50 read?
A: 4 nM

Q: How did the EC50 turn out when `Cn1ccc2cc(Oc3ccc(F)c4c3CC[C@H]4Oc3ccc4c(c3)OC[C@H]4CC(=O)O)ccc21` [Example 38, {(S)-6-[(R)-7-Fluoro-4-(1-methyl-1H-indol-5-yloxy)-indan-1-yloxy]-2,3-dihydro-benzofuran-3-yl}-acetic acid] was run?
A: 6 nM
